Consider 4 compounds from paper PMC10974945, “Targeting MutT Homolog 1 (MTH1) for Breast Cancer Suppression by Using a Novel MTH1 Inhibitor MA−24 with Tumor-Selective Toxicity” (Pharmaceuticals, 2024).

One data set relates to 4T1 breast cancer tumor. The data set is described as follows: 4T1 breast cancer tumor model in Balb/c mice. Conditions: for Ki67 expression / tumor cell proliferation in tumors / body weight compared to the control group: MA−24 60 mg/kg; for body weight compared to the control group: TH287 200 mg/kg i.p. every three days. As to the method: All animal experiments were carried out in accordance with a protocol approved by the Animal Ethics Committee of the China Pharmaceutical University. Female BALB/C mice were given food and water ad libitum. Approximately 7-week-old mice were injected subcutaneously with 2 × 10^5 4T1 cells in the left flank. When the mean tumor size reached 30~50 mm^3, vehicle (composed with 1% DMSO, 10% ethanol, 10% Chremophor EL, and 10% Tween-80, diluted with PBS), MTH1 inhibitor (MA−24 at 60 mg/kg or TH287 at 200 mg/kg), or 5-FU (30 mg/kg) was administered intraperitoneally every three days. Tumor size and body weights were measured twice weekly starting on the first day of treatment. Moreover, to minimize animal suffering, euthanasia by cervical dislocation was performed when the maximum diameter of the tumors exceeded 1 cm.

Data set [1] concerns the target T1, MTH1 (Homo sapiens, UniProt P36639). The data set is described as follows: Target engagement by cellular thermal shift assay (CETSA) in MCF−7 cells. In kind it is cell-based. The settings on record: 50 μM, 4.5 h, 42 to 75 °C. As to the method:
MCF−7 cells cultured in 6-well plates for 24 h were exposed to vehicle (0.5% DMSO) or 50 μM TH287 or MA−24 for 4.5 h. After trypsinization cells were detached, spun down and resuspended in PBS. Eight equational cells were heated for 3 min from 42 to 75 °C, and then lysed using RIPA lysis buffer. Western blot analysis was used to analyze the amounts of stabilized MTH1 using the MTH1 antibody.

The next data set concerns 4T1 cells. The data set is described as follows: MTT cell viability/proliferation assay, 4T1. In kind it is cell-based, murine. Conditions: Mus musculus, read-out: IC50 on 4T1 proliferation (mean ± SD). As to the method:
(§1) Human breast cancer cell lines (MCF-7: ER+, PR+, HER2-, EGFR+, MB-MDA-MB-231: […] All cells were cultured in suitable medium supplemented with 10% fetal bovine serum (FBS; […] Biotechnology Co., Ltd., Hangzhou, China), 100 U/mL penicillin, and 100 μg/mL streptomycin (Invitrogen, Carlsbad, CA, USA) at 37 °C in 5% CO2. MCF-7, MB-MDA-MB-231, HEK-293F, and HUVEC were grown in Dulbecco's modified Eagle's medium (DMEM; […] Subsequently, cells were treated with compound or vehicle (maximum 0.3% DMSO). After 48 h, cells were treated with MTT; the absorbance of the assay plate was read at 490 nm using a Multiskan GO Microplate Spectrophotometer (Thermo Fisher Scientific, Waltham, MA, USA).

In data set [2] the target is T1, MTH1. Put plainly: Kinetic analysis of MTH1 inhibition (reciprocal plot). It counts as biochemical. Conditions: consistent 1/Vmax.
The test system of a further data set is MDA-MB-231 cells. Put plainly: MTT cell viability/proliferation assay, MDA-MB-231. It counts as cell-based. The settings on record: Homo sapiens, read-out: IC50 on MDA-MB-231 proliferation (mean ± SD). As to the method: as §1
Data set [3] concerns MCF−7 cells. Put plainly: MTT cell viability/proliferation assay, MCF−7. In kind it is cell-based. Conditions: Homo sapiens; for IC50: read-out: IC50 against MCF−7 cell proliferation (mean ± SD); for inhibition at 200 µM: compound concentration 200 μM, read-out: Inhibition (%) (Mean ± SD) of MCF−7 cell proliferation. As to the method: as §1
The next data set has as its system CHO cells. Put plainly: MTT cell viability/proliferation assay, CHO (immortalized). The settings on record: Cricetulus griseus, 48 h, read-out: IC50 on CHO proliferation (mean ± SD). In kind it is cell-based. As to the method: as §1
Data set [4] relates to MCF−7 cells. The data set is described as follows: Alkaline comet assay in MCF−7 cells. It counts as cell-based, human. Conditions: 10 μM, 2 days. As to the method:
MCF−7 cells (300,000 cells) were plated in 6-well plates and incubated for 24 h at 37 °C and 5% CO2. Subsequently, cells were treated with a compound (10 μM MA−24 and TH287) or vehicle (0.1% DMSO) for 2 days or with 150 μM for 10 min on ice. Cells were harvested as above. After washing twice with PBS, cells were re-suspended in PBS. Then, the 30 μL cell suspension was mixed with 150 µL 1.2% low-melting agarose that was maintained at 37 °C. The mixture was layered onto pre-warmed (37 °C) agarose-coated glass slides. The slides were kept on ice for 10 min and incubated in lysis buffer (10 mM Tris pH 7.7, 2.5 M NaCl, 0.1 M EDTA, 1% DMSO, and 1% Triton X-100) at 4 °C overnight in the dark. Slides were washed twice with enzyme reaction buffer (40 mM HEPES pH 8.0, 0.1 M KCl, 0.5 mM EDTA, and 0.2 mg/mL BSA) and incubated with Fpg […] (8 U/mL, New England Biolabs, Shanghai, China) at 37 °C for 45 min. Slides were washed once with enzyme reaction buffer and incubated in alkaline electrophoresis buffer (50 mM NaOH, 1 mM EDTA, and 1% DMSO) for 20 min. […] Images were acquired with a fluorescence microscope (Olympus Corporation, Tokyo, Japan) and quantified using Comet Score software, Version 1.5. At least 100 comets per sample were analyzed. Tail moment is calculated as the percentage of DNA in the tail multiplied by the tail length.

Another data set concerns HEK-293F cells. Put plainly: MTT cell viability/proliferation assay, HEK-293F (immortalized). Conditions: HEK293F, 48 h, read-out: IC50 on HEK-293F proliferation (mean ± SD). It counts as cell-based. As to the method:
as §1

The target of data set [5] is T1, MTH1. Put plainly: MTH1 enzymatic inhibition, malachite green colorimetric assay. In kind it is biochemical. As to the method: MTH1, inorganic pyrophosphatase, and dGTP (Thermo Fisher Scientific, Waltham, MA, USA) were diluted in assay buffer containing 100 mM Tris-acetate at pH 8.0, 40 mM NaCl, 10 mM Mg-acetate, 0.005% Tween 20, and 1 mM DTT. Briefly, serial dilutions of compounds were dissolved in assay buffer; meanwhile, MTH1 was diluted to 4 μg/mL, and then these two solutions were mixed and filled with buffer to 186 µL. After 15 min incubation at 25 °C, 10 µL dGTP (final concentration […]) and 4 µL inorganic pyrophosphatase (final concentration 0.2 U/mL) were added to start the reaction. The reaction mixture was incubated with shaking for 45 min at 25°C. Finally, 50 µL of malachite green assay reagent was added and incubated with shaking for 15 min at 25 °C. The absorbance of the assay plate was read at 630 nm using a Multiskan GO Microplate Spectrophotometer (Thermo Fisher Scientific, Waltham, MA, USA) and IC50 values were calculated using GraphPad Prism 9.5.1 Software.

In data set [6] the test system is MCF−7 cells. The data set is described as follows: Western blot of apoptosis and p38 MAPK proteins in MCF−7 cells. Conditions: for expression of p38: high concentrations. In kind it is cell-based, human. An excerpt: Total protein was obtained using RIPA lysis buffer (Beyotime Biotechnology, Shanghai, China) supplemented with phenylmethanesulfonyl fluoride (Beyotime Biotechnology, Shanghai, China), separated by SDS-PAGE, and transferred to the PVDF membrane by electroblotting (Bio-Rad, Hercules, CA, USA) followed by blocking with 5% milk in TBST. MTH1 antibody (Cat.No.ab200832, Abcam, Eugene, OR, USA), β-actin antibody (Cat.No.ab8227; Abcam, Eugene, OR, USA), ccaspae-3 antibody (Cat.No.14220, CST, Boston, USA), cleaved caspase-3 antibody (Asp175) (Cat.No.9664, CST, Boston, MA, USA), cleaved PARP antibody (Asp214) (Cat.No.95696, CST, Boston, MA, USA), p38 (Cat.No.9212, CST, Boston, MA, USA), and phospho-p38 MAPK (Thr180/Tyr182) (Cat.No.9211, CST, Boston, MA, USA) were used at a dilution of 1:1000–1:5000. Upon addition of primary and HRP-conjugated secondary antibodies, blots were detected using an ECL substrate (Thermo Fisher Scientific, Waltham, MA, USA) and the Tanon 5200 Chemiluminescent Imaging System (Tanon, Shanghai, China).
A general note: A western blot detects proteins with antibodies after separation by electrophoresis.

In a further data set the test system is HUVEC cells. The data set is described as follows: MTT cell viability/proliferation assay, HUVEC (immortalized). In kind it is cell-based. Conditions: Homo sapiens, 48 h, read-out: IC50 on HUVEC proliferation (mean ± SD). As to the method:
as §1

Details of data set [7]: method as in PMID 25459754. The settings on record: intraperitoneal injection, cited from earlier work.
On the set-up of data set [8]: method as in PMID 24695224. The settings on record: in vitro studies; cited from earlier work.
[9] abbreviates: 5-FU 30 mg/kg i.p. every three days, 4T1 tumor.
Where [10] appears, read: malachite green staining assay, dGTP substrate, read-out: IC50 to MTH1 (mean ± SD).

Read-outs that look alike come from different tables or passages of the source. Some results are limits rather than exact numbers.

For the compound `O=c1[nH]cc(F)c(=O)[nH]1` [5-FU, 5-fluorouracil], the “tumor growth inhibition rate” value in the data set with 4T1 breast cancer tumor (30 mg/kg intraperitoneally every three days, 4T1 tumor) came to 81.9%. Besides, the “toxicity: mouse mortality” value with 4T1 breast cancer tumor (5-FU 30 mg/kg i.p. every three days) was “mouse mortality starting from the 16th day of treatment”. In addition, in the data set on 4T1 breast cancer tumor (setting [9]), the “Ki67 expression / tumor cell proliferation in tumors” value is “inhibitory effect on tumor cell proliferation”.
As to `CNc1cc(NCCc2ccc(C)cc2)nc(N)n1` [MA−24], the “thermal stabilization of MTH1 (CETSA)” value on MTH1 [1] is reported as “prominent thermal stabilization”. Further, the IC50 in the data set on 4T1 cells (4T1, MTT assay, 48 h, cancer cell line) was 14.8 ± 1.42 µM; in the data set with MDA-MB-231 cells (MDA-MB-231, MTT assay, 48 h, cancer cell line), 48.4 ± 0.68 µM; in the data set with MCF−7 cells [3] (MCF7, MTT assay, 48 h), 23.9 ± 0.95 µM; in the data set with CHO cells (MTT assay, immortalized cells), at least 75 µM; in the data set on HEK-293F cells (MTT assay, immortalized cells), at least 75 µM; at MTH1 [5] (setting [10]), 0.0104 ± 0.00028 µM. The IC50 in the data set with HUVEC cells (MTT assay, immortalized cells) was at least 75 µM. At MTH1 [2], the “type of inhibition on MTH1 with respect to dGTP” value is “competitive inhibition type”. Besides, in the data set with MCF−7 cells [3] (MCF7, MTT assay), the inhibition at 200 µM is 99.6 ± 0.4%. Also, the “tumor growth inhibition rate” value in the data set on 4T1 breast cancer tumor (60 mg/kg intraperitoneally every three days, 4T1 tumor) was 61.8%. Moreover, the lung metastasis result with 4T1 breast cancer tumor (MA−24 60 mg/kg i.p. every three days, 4T1 tumor) is “reduced lung metastasis”. Further, the “Ki67 expression / tumor cell proliferation in tumors” value in the data set on 4T1 breast cancer tumor (setting [9]) was “moderate reduction in Ki67 expression”. In addition, the “body weight compared to the control group” value in the data set on 4T1 breast cancer tumor was “no statistically significant differences”. Further, in the data set with MCF−7 cells [4], the “DNA strand breaks (comet assay)” value was “significantly increased DNA strand breaks”. The “expression of cleaved-caspase 3 and cleaved PARP” value in the data set on MCF−7 cells [6] (30 μM) is “upregulation of cleaved-caspase 3 and cleaved PARP”. Also, the “expression of p38” value in the data set on MCF−7 cells [6] is “significantly reduce the expression of p38”.
Turning to `CNc1cc(NCCc2ccc(F)cc2)nc(N)n1` [MA−25], the IC50 is 82.3 ± 1.02 µM in the data set with MCF−7 cells [3] (MCF7, MTT assay, 48 h) and 0.01374 ± 0.0001 µM at MTH1 [5] (setting [10]). The inhibition at 200 µM with MCF−7 cells [3] (MCF7, MTT assay) amounted to 100 ± 0.1%.
As for `CNc1cc(-c2cccc(Cl)c2Cl)nc(N)n1` [TH287, reference compound], at MTH1 [1], the “thermal stabilization of MTH1 (CETSA)” value was “increase the thermal stability of the MTH1 protein”. Further, the IC50 in the data set with 4T1 cells (4T1, 48 h) is 5.9 ± 1.02 µM; in the data set on MDA-MB-231 cells (MDA-MB-231, 48 h), 1.92 ± 0.34 µM; in the data set on MCF−7 cells [3] (MCF7, 48 h), 3.55 ± 0.27 µM; in the data set with CHO cells, at least 25 µM; in the data set on HEK-293F cells, at least 25 µM; against MTH1 [5], 0.00316 ± 3e-05 µM. Moreover, the IC50 in the data set on HUVEC cells is at least 25 µM. The “type of inhibition on MTH1 with respect to dGTP” value at MTH1 [2] is “competitive inhibition type”. In data set [7] (5mg/kg, 2, 3, and 4 h), the “blood drug concentration at 2, 3, and 4 h” value is listed as “below the detection limit”. Besides, the “blood drug concentration at 1 h” value in data set [7] (5mg/kg, 1 h) was 1000 nM. In addition, in the data set with 4T1 breast cancer tumor (200 mg/kg intraperitoneally every three days, 4T1 tumor), the “tumor growth inhibition rate” value was 20.4%. In addition, the “body weight compared to the control group” value with 4T1 breast cancer tumor is given as “no statistically significant differences”. The “expression of p38” value in the data set with MCF−7 cells [6] is on record as “significantly reduce the expression of p38”. For the same compound, the “stability in vitro compared to TH588” value in [8] is on record as “poorer stability”.
